The source of these data is patent US20230303647A1, “CYCLIC CHEMERIN-9 DERIVATIVES” (priority 2020, published 2023).

The target of data set [1] is T1, CMKLR1 (Homo sapiens, UniProt Q99788).
T1 sequence (Q99788 1-373): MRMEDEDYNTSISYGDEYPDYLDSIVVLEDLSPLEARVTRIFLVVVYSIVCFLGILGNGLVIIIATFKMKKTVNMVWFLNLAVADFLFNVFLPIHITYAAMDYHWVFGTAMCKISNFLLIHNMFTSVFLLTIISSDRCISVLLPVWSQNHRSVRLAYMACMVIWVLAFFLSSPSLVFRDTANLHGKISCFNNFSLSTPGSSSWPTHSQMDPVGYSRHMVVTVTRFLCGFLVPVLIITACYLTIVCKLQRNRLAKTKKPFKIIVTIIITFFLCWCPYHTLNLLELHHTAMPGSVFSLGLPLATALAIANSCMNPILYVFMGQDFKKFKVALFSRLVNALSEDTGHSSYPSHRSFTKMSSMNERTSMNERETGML
As to the kind of experiment: Ca2+ mobilization assay (G protein-mediated signaling).
Method: COS-7 cells were transfected in 75 cm^2 cell culture flasks with 12 μg of the hCMKLR1_eYFP_GαΔ6qi4myr_pV2 plasmid overnight using Metafectene Pro. Transfected cells were seeded in 96 well plates (100 μL cell suspension in DMEM+10% FBS/well) and incubated overnight. The following day, the Ca^2+-mobilization was performed as described previously. […] All experiments were performed in triplicates, each experiment was repeated at least twice. Nonlinear regression was calculated using GraphPad Prism 5.

The nature of data set [2]: Plasma stability assay of Tam-labeled peptides. The following applies: for half-life: human; for stability in blood plasma: over a time period of 24 h.
Method: Investigation of peptide stability in blood plasma was carried out as described previously. […] Samples taken at the respective time points were added to a solution of 0.1% SDS in ACN/EtOH (1:1). After incubation at −20° C. for 20 min, the supernatant was transferred to a new tube and incubated again at −20° C. for at least 3 h. The solution was filtered by centrifugation using Costar Spin-X tubes (0.22 μm) and the filtrate was analyzed by RP-HPLC on a VariTide RPC. […] Peaks were integrated and the peak containing the intact peptide was normalized to the sample taken at t=0 min (100%).
Data set [3] has as its target T1, CMKLR1. Put plainly: BRET-based arrestin 3 recruitment assay. The following applies: for arrestin 3 recruitment to the CMKLR1 (in words): BRET, compared with chemerin-9; for Emax: read-out: Emax [%] ± SEM.
Method: HEK293 cells were transiently transfected using 75 cm^2 cell culture flasks with cell monolayers (confluency of ˜80%). Plasmid DNA of the C-terminally eYFP tagged human CMKLR1 and the chimeric G protein GαΔ6qi4myr in a pVitro2 vector (7.8 μg) and Renilla-luciferase 8-tagged Arrestin 3 in pcDNA3 (0.2 μg) and 24 μl MetafectenePro were separately added to 900 μl DMEM/Ham's F12 and incubated for 10 min before unification and incubation at RT for 20 min. […] The plasmid solution was added and cells were incubated overnight before seeding. Cell seeding was carried out in white 96-well polystyrene cell culture microplates, coated with poly-D lysine. […] Afterwards, the cells were incubated overnight at 37° C. The assay was performed under unsterile conditions. […] Afterwards, the cells were stimulated with the peptides in different concentrations (10^−5 to 10^−12 M) dissolved in BRET buffer. 50 μl of the peptide dilution were used for cell stimulation. Buffer without peptide was used as a negative control. […] The values of the negative control were subtracted, non-linear regression was calculated using GraphPad Prism. […] All measurements were performed in four technical replicates, all experiments were repeated at least twice.
The bioluminescence resonance energy transfer (BRET) assay was used to determine the potency of cyclic chemerin variants to recruit arrestin 3 to the CMKLR1 receptor after stimulation. HEK293 cells were transiently transfected with CMKLR1 receptor fused with eYFP fluorophore and Arrestin 3 tagged with Rluc8 luciferase. The transfected cells were seeded, incubated with the luciferase substrate coelenterazine-h and stimulated with different peptide concentrations, resulting in measurable BRET signals.
[4] abbreviates: COS-7 cells transfected with hCMKLR1_eYFP_GαΔ6qi4myr, normalized to chemerin-9.

“Also recorded” adds a separate entry of the source. *1 amine or outer side, *2 acyl side, *3 side chain or, on linkers, in order; H or OH if unused. Where a SMILES comes first, the peptide text is derived from it. Bridges are numbered along the chain shown (N, C = ends). [ ]: non-standard residue; d: D form. The star is where a group is joined. ξ: configuration not given here. X1 = CN(C)c1ccc2c(-c3cc(C(=O)*)ccc3C(=O)[O-])c3ccc(=[N+](C)C)cc-3oc2c1; X2 = CN(C)c1ccc2c(-c3cc(C(=O)*)ccc3C(=O)O)c3ccc(=[N+](C)C)cc-3oc2c1; PEG4 = NCCOCCOCCOCCOCCC(=O)O; d(hCys) = N[C@H](CCS)C(=O)O; hCys = N[C@@H](CCS)C(=O)O; ξF = NC(Cc1ccccc1)C(=O)O; CH2 = C([*:1])[*:2]; ξC = NC(CS)C(=O)O

On to `C[C@@H]1NC(=O)[C@H](Cc2ccccc2)NC(=O)[C@H](CCC(N)=O)NC(=O)[C@H](NC(=O)[C@@H]2CCCN2C(=O)[C@H](Cc2ccccc2)NC(=O)[C@@H](N)Cc2ccc(O)cc2)CSSC[C@@H](C(=O)O)NC(=O)[C@H](Cc2ccccc2)NC1=O` [$$ 4, [c4,C9]-chemerin-9, reference compound] (H-YFP[dC]QFAFC-OH; disulfide 4-9), for which, at CMKLR1 [1] (setting [4]), the EC50 is 64 nM and the “pEC50 ± SEM” value amounted to 7.192 ± 0.147.
`C[C@@H]1NC(=O)[C@H](Cc2ccccc2)NC(=O)[C@H](CCC(N)=O)NC(=O)[C@H](NC(=O)[C@@H]2CCCN2C(=O)[C@H](Cc2ccccc2)NC(=O)[C@H](Cc2ccc(O)cc2)NC(=O)c2ccc(C(=O)O)c(-c3c4ccc(=[N+](C)C)cc-4oc4cc(N(C)C)ccc34)c2)CSSC[C@@H](C(=O)O)NC(=O)[C@H](Cc2ccccc2)NC1=O` [$$ 5, Tam-[c4,C9]-chemerin-9] (X2-YFP[dC]QFAFC-OH; disulfide 4-9) yielded a half-life in data set [2] (human blood plasma) above 24 h. Further, the “stability in blood plasma” value in data set [2] is given as “completely stable”.
Regarding `NC(=O)CC[C@@H]1NC(=O)[C@H](NC(=O)[C@@H]2CCCN2C(=O)[C@H](Cc2ccccc2)NC(=O)[C@@H](N)Cc2ccc(O)cc2)CSSC[C@@H](C(=O)N[C@@H](Cc2ccccc2)C(=O)N[C@@H](CO)C(=O)O)NC(=O)[C@H](Cc2ccccc2)NC1=O` [$$ 6, [c4,C7]-chemerin-9, reference compound] (H-YFP[dC]QFCFS-OH; disulfide 4-7), the response on CMKLR1 [1] was half-maximal at 62.5 nM (EC50).
With `C[C@@H]1NC(=O)[C@H](Cc2ccccc2)NC(=O)[C@H](CCC(N)=O)NC(=O)[C@H](NC(=O)[C@@H]2CCCN2C(=O)[C@H](Cc2ccccc2)NC(=O)[C@@H](N)Cc2ccc(O)cc2)CSCSC[C@@H](C(=O)O)NC(=O)[C@H](Cc2ccccc2)NC1=O` [$$ 7, [c4,C9-TA]-chemerin-9] (H-YFP[dC]QFAFC-OH; linker 4-9 via CH2), at CMKLR1 [1] (setting [4]), the “pEC50 ± SEM” value is recorded as 7.888 ± 0.130.
The molecule `C[C@@H]1NC(=O)[C@H](Cc2ccccc2)NC(=O)[C@H](CCC(N)=O)NC(=O)[C@H](NC(=O)[C@@H]2CCCN2C(=O)[C@H](Cc2ccccc2)NC(=O)[C@H](Cc2ccc(O)cc2)NC(=O)c2ccc(C(=O)[O-])c(-c3c4ccc(=[N+](C)C)cc-4oc4cc(N(C)C)ccc34)c2)CSCSC[C@@H](C(=O)O)NC(=O)[C@H](Cc2ccccc2)NC1=O` [$$ 8, Tam-[c4,C9-TA]-chemerin-9] (X1-YFP[dC]QFAFC-OH; linker 4-9 via CH2) gave a half-life in data set [2] (plasma) above 24 h. In addition, in data set [2], the “stability in blood plasma” value is on record as “completely stable”.
As to `C[C@@H]1NC(=O)[C@H](Cc2ccccc2)NC(=O)[C@H](CCC(N)=O)NC(=O)[C@H](NC(=O)[C@@H]2CCCN2C(=O)[C@H](Cc2ccccc2)NC(=O)[C@@H](N)Cc2ccc(O)cc2)CSCSCC[C@@H](C(=O)O)NC(=O)[C@H](Cc2ccccc2)NC1=O` [$$ 9, [c4,X9-TA]-chemerin-9] (H-YFP[dC]QFAF[hCys]-OH; linker 4-9 via CH2), in data set [2], the “stability in blood plasma” value is recorded as “completely stable”. Moreover, the “pEC50 ± SEM” value on CMKLR1 [1] (setting [4]) worked out at 7.429 ± 0.110.
As to `C[C@@H]1NC(=O)[C@H](Cc2ccccc2)NC(=O)[C@H](CCC(N)=O)NC(=O)[C@H](NC(=O)[C@@H]2CCCN2C(=O)[C@H](Cc2ccccc2)NC(=O)[C@H](N)Cc2ccc(O)cc2)CSCSCC[C@@H](C(=O)O)NC(=O)[C@H](Cc2ccccc2)NC1=O` [$$ 11, [y1,c4,X9-TA]-chemerin-9] (H-[dY]FP[dC]QFAF[hCys]-OH; linker 4-9 via CH2), the “pEC50 ± SEM” value at CMKLR1 [1] (setting [4]) came to 7.553 ± 0.067.
Molecule `CN(C)c1ccc2c(-c3cc(C(=O)NCCCC[C@H]4NC(=O)C(Cc5ccccc5)NC(=O)[C@@H](CCC(N)=O)NC(=O)[C@H](NC(=O)[C@@H]5CCCN5C(=O)[C@@H](Cc5ccccc5)NC(=O)[C@H](N)Cc5ccc(O)cc5)CSSCC(C(=O)O)NC(=O)[C@@H](Cc5ccccc5)NC4=O)ccc3C(=O)[O-])c3ccc(=[N+](C)C)cc-3oc2c1` (stereo partly shown) [$$ 12, [y1,c4,K7(Tam),C9]-chemerin-9] (H-[dY][dF]P[dC][dQ][ξF][dK](X1)[dF][ξC]-OH; disulfide 4-9) had a half-life in data set [2] (human blood plasma) above 24 h. For the same molecule, the “stability in blood plasma” value in data set [2] is “equally stable”.
Regarding `C[C@@H]1NC(=O)[C@H](Cc2ccccc2)NC(=O)[C@H](CCC(N)=O)NC(=O)[C@H](NC(=O)[C@@H]2CCCN2C(=O)[C@H](Cc2ccccc2)NC(=O)[C@@H](N)Cc2ccc(O)cc2)CCSSC[C@@H](C(=O)O)NC(=O)[C@H](Cc2ccccc2)NC1=O` [$$ 13, [x4,C9]-chemerin-9] (H-YFP[d(hCys)]QFAFC-OH; disulfide 4-9), on CMKLR1 [3], the “arrestin 3 recruitment to the CMKLR1 (in words)” value (“arrestin 3 recruitment” below) is “only slightly shifted EC50 and Emax values; also recorded: slight loss of activity”; the Emax was 86.8 ± 4%.
On to `C[C@@H]1NC(=O)[C@H](Cc2ccccc2)NC(=O)[C@H](CCC(N)=O)NC(=O)[C@H](NC(=O)[C@@H]2CCCN2C(=O)[C@H](Cc2ccccc2)NC(=O)[C@@H](N)Cc2ccc(O)cc2)CCSSC[C@@H](C(=O)O)NC(=O)[C@H](Cc2c[nH]c3ccccc23)NC1=O` [$$ 14, [x4,W8,C9]-chemerin-9] (H-YFP[d(hCys)]QFAWC-OH; disulfide 4-9), for which, on CMKLR1 [3], the EC50 was 158 nM, the “arrestin 3 recruitment” value is listed as “accepted; also recorded: no impact” and the Emax worked out at 97 ± 10%. The “G protein signaling activity (in words)” value at CMKLR1 [1] (Ca2+ mobilization assay) is on record as “increased the activity even more”. On CMKLR1 [1] (EC50, COS-7 cells transfected with hCMKLR1_eYFP_GαΔ6qi4myr, normalized to chemerin-9), this molecule showed a 50% effective concentration (EC50) of 3 nM. The same molecule gave an EC50 on CMKLR1 [1] (pEC50 ± SEM, COS-7 cells transfected with hCMKLR1_eYFP_GαΔ6qi4myr, normalized to chemerin-9) of 3.17 nM.
Consider `C[C@@H]1NC(=O)[C@H](Cc2ccccc2)NC(=O)[C@H](CCC(N)=O)NC(=O)[C@H](NC(=O)[C@@H]2CCCN2C(=O)[C@H](Cc2ccccc2)NC(=O)[C@H](Cc2ccc(O)cc2)NC(=O)CCOCCOCCOCCOCCN)CCSSC[C@@H](C(=O)O)NC(=O)[C@H](Cc2ccccc2)NC1=O` [$$ 16, EG4-[x4,C9]-chemerin-9] (H-[PEG4]YFP[d(hCys)]QFAFC-OH; disulfide 5-10), for which, at CMKLR1 [3], the “arrestin 3 recruitment” value is “accepted; also recorded: no impact” and the Emax was 102 ± 5%.
`C[C@@H]1NC(=O)[C@H](Cc2ccccc2)NC(=O)[C@H](CCC(N)=O)NC(=O)[C@H](NC(=O)[C@@H]2CCCN2C(=O)[C@H](Cc2ccccc2)NC(=O)[C@H](Cc2ccc(O)cc2)NC(=O)CCOCCOCCOCCOCCNC(=O)c2ccc(C(=O)[O-])c(-c3c4ccc(=[N+](C)C)cc-4oc4cc(N(C)C)ccc34)c2)CCSSC[C@@H](C(=O)O)NC(=O)[C@H](Cc2ccccc2)NC1=O` [$$ 17, Tam-EG4-[x4,C9]-chemerin-9] ({X1-PEG4}-YFP[d(hCys)]QFAFC-OH; disulfide 4-9): the half-life in data set [2] (human blood plasma) was above 48 h.
Same read-out and setting: the result for `C[C@@H]1NC(=O)[C@H](Cc2ccccc2)NC(=O)[C@H](CCC(N)=O)NC(=O)[C@H](NC(=O)[C@@H]2CCCN2C(=O)[C@H](Cc2ccccc2)NC(=O)[C@H](Cc2ccc(O)cc2)NC(=O)CCOCCOCCOCCOCCNC(=O)c2ccc(C(=O)[O-])c(-c3c4ccc(=[N+](C)C)cc-4oc4cc(N(C)C)ccc34)c2)CCSSC[C@@H](C(=O)O)NC(=O)[C@H](Cc2c[nH]c3ccccc23)NC1=O` [$$ 19, Tam-EG4-[x4,W8,C9]-chemerin-9] ({X1-PEG4}-YFP[d(hCys)]QFAWC-OH; disulfide 4-9) reads above 48 h.
For `CC(=O)NCC(=O)N[C@@H](Cc1ccccc1)C(=O)N[C@@H](CC(C)C)C(=O)NCC(=O)N[C@@H](Cc1ccc(O)cc1)C(=O)N[C@@H](Cc1ccccc1)C(=O)N1CCC[C@H]1C(=O)N[C@@H]1CCSSC[C@@H](C(=O)O)NC(=O)[C@H](Cc2ccccc2)NC(=O)[C@H](C)NC(=O)[C@H](Cc2ccccc2)NC(=O)[C@H](CCC(N)=O)NC1=O` [$$ 20, GFLG-[x4,C9]-chemerin-9] (Ac-GFLGYFP[d(hCys)]QFAFC-OH; disulfide 8-13), the EC50 on CMKLR1 [3] (EC50, HEK293 cells, CMKLR1-eYFP and Rluc8-arrestin 3, 15 min after agonist addition) is 100 nM; on CMKLR1 [1], 21.1 nM. The Emax at CMKLR1 [3] amounted to 89 ± 5%.
